Tested on: mice (C57BL6)
Assay: forced swimming test (FST)
Format: in vivo, mouse
Settings: FST in an hour after administration, immobility time measured for the last 4 minutes of 6 minutes
Description: In order to test an effect of reducing depression depending on administration of the pharmaceutical composition of the present invention, mice were subjected to a forced swimming test (FST). The FST, which is to measure a coping strategy for acute stress that inevitably occurs, is an animal behavioral experiment commonly used to measure antidepressant effects. To confirm the effect of reducing depression by combined administration of D-cycloserine (DCS) and lithium, 10 ml/kg of the preparation was administered to all groups of mice (C57BL6). […] After 1 hour, the forced swimming test (FST) that measures depression-like behavior was performed on the mice. Specifically, each group of mice was individually placed in a 3 L Pyrex beaker (13 cm in diameter, 24 cm in height), and the beakers were filled with 27.5±1.5° C. of water up to a depth of 9 cm. All mice were forced to swim for 6 minutes, and immobility time was measured for the last 4 minutes of the experiment. The immobility time is defined as the […] time taken while the mouse is floating without struggling or taking only the movement required for keeping the mouse's head above the water surface.

SMILES: N[C@@H]1CONC1=O [DCS, D-cycloserine]
- immobility in forced swimming test, compared to the control group administered with the vehicle: did not show statistical significance

SMILES: O=C([O-])[O-].[Li+].[Li+] [Li2CO3, Lithium carbonate]
- immobility in forced swimming test, compared to the control group administered with the vehicle: did not show statistical significance

Source: US12303530B2, “Combination therapy of cycloserine and lithium for the treatment of depression” (NEURORIVE INC, priority 2019, dated 2025)
